Results on one compound are retold here after paper PMC3970110 (Bioorganic & medicinal chemistry letters, 2013).

The assay has as its target T1, human NAD+-dependent 15-hydroxyprostaglandin dehydrogenase (HPGD, 15-PGDH) (Homo sapiens, UniProt P15428).
T1 sequence (P15428 1-266): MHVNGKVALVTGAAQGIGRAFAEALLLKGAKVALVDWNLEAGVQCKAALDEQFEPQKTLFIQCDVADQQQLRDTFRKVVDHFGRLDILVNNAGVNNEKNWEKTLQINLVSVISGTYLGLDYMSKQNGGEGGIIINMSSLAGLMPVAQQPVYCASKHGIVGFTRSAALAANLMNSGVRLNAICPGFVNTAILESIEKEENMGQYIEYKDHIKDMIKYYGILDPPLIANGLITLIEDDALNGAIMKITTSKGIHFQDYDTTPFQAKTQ
The assay is described as follows: HPGD HTS enzymatic assay. The format is biochemical.

As to `Cc1cccc(-n2cnc3cc(C(=O)N4CCCC4)ccc32)c1` [Compound 11i], the “decrease in HPGD activity relative to ML148” value was found to be 20 fold.
